Experiments:
[1] = UV absorption properties (λmax, molar extinction coefficient ε, efficiency E 1%, 1 cm); assay type: physicochemical; conditions: for ε: in M-1 cm-1
[2] = Critical wavelength (λcrit), approximate in-house measurement; assay type: physicochemical
Source text: As the precise test for critical wavelength was unable to be replicated exactly by the inventors due to the need for specialist equipment and a specific calibration of the spectrophotometer, these values are only approximate to a degree. […] This represents a highly useful result and so, compounds based around this benzoyl substitution pattern shown, are especially preferred.

[3] = Table 10, bis and mono enamine compounds
[4] = Table 13B, miscellaneous compounds
[5] = Table 13B, values in order of the λmax values

E (1%, 1 cm) ([1]; Table 10)	λmax [1, 3] [nm]	ε ([1]; Table 10)	λcrit ([2]; Table 10) [nm]	λmax [1, 4] [nm]	E (1%, 1 cm) [1, 5]	ε [1, 5]	λcrit ([2]; Table 13B) [nm]	Structure (SMILES)
1036	278	20823	321					Cc1ccc(N2C=CC(C)(C)CC2)cc1
1601	283	31871	317					Cc1ccc(N2C=CC(C)(C)C=C2)cc1
977	305	18164	327					CC1(C)C=CN(c2ccncc2)C=C1
				315	737	26695	361	CC1(C)CCN(C(C)(C)C)C=C1C(=O)c1ccc(Nc2ccccc2)cc1
				325	608	42215	346	Cc1ccc(N2C=C(C(=O)N(CCCCN(C(=O)C3=CN(c4ccc(C)cc4)CCC3(C)C)c3ccccc3)c3ccccc3)C(C)(C)CC2)cc1
				312	354	22166	357	CC1(C)CCN(C(C)(C)C)C=C1C(=O)N(CCCCN(C(=O)C1=CN(C(C)(C)C)CCC1(C)C)c1ccccc1)c1ccccc1
				334	1121	58063	353	CCC(=O)C1=CN(c2ccc(Oc3ccc(N4C=C(C(=O)CC)C(C)(C)CC4)cc3)cc2)CCC1(C)C
				328	1234	63191	349	CCC(=O)C1=CN(c2ccc(-c3ccc(N4C=C(C(=O)CC)C(C)(C)CC4)c(C)c3)cc2C)CCC1(C)C
				385	591	32159	390	Cc1cc(/C=C/C(=O)C2=CN(C(C)(C)C)CCC2(C)C)c(C)cc1/C=C/C(=O)C1=CN(C(C)(C)C)CCC1(C)C

The remaining lines, values behind:

Structure (SMILES)	E (1%, 1 cm) ([1]; Table 10)	λmax [1, 3] [nm]	ε ([1]; Table 10)	λcrit ([2]; Table 10) [nm]	λmax [1, 4] [nm]	E (1%, 1 cm) [1, 5]	ε [1, 5]	λcrit ([2]; Table 13B) [nm]
CC1(C)CCN(C(C)(C)C)C=C1C(=O)/C=C/c1ccc(/C=C/C(=O)C2=CN(C(C)(C)C)CCC2(C)C)cc1					386	705	36404	390
CC1(C)CCN(c2ccc(C(C)(C)C)cc2)C=C1C(=O)N(Cc1ccc(CN(C(=O)C2=CN(c3ccc(C(C)(C)C)cc3)CCC2(C)C)c2ccccc2)cc1)c1ccccc1					326	567	46937	352
CC1(C)CCN(C(C)(C)C)C=C1C(=O)N(Cc1ccc(CN(C(=O)C2=CN(C(C)(C)C)CCC2(C)C)c2ccccc2)cc1)c1ccccc1					314	391	26421	365
Cc1cc(-c2ccc(N3C=C(C(=O)C(F)(F)F)C(C)(C)CC3)c(C)c2)ccc1N1C=C(C(=O)C(F)(F)F)C(C)(C)CC1					331	1207	71432	354
Cc1cc(-c2ccc(N3C=C(C(=O)C(F)(F)F)C(C)(C)CC3)c(C)c2)ccc1N1C=CC(C)(C)C(C(=O)C(F)(F)F)=C1					326	859	50670	378
Cc1cc(/C=C/C(=O)C2=CN(C(C)(C)C)CCC2(C)C)c(C)cc1Br					360	532	21473	386
COC(=O)c1cc(Br)ccc1/C=C/C(=O)C1=CN(C(C)(C)C)CCC1(C)C					362	411	13489	386
COC(=O)c1cc(/C=C/C(=O)C2=CN(C(C)(C)C)CCC2(C)C)ccc1/C=C/C(=O)C1=CN(C(C)(C)C)CCC1(C)C					383	525	30128	389
CCCCCCC(=O)C1=CN(c2ccc(N3C=C(C(=O)CCCCCC)C(C)(C)CC3)cc2)CCC1(C)C					359			378

Source: patent US10519111B2, “UV absorbing compounds, compositions comprising same and uses thereof” (CORAL SUNSCREEN PTY LTD, priority 2013, dated 2019)
